According to patent US12673924B2, “Valiolamine derivatives as glucosidase inhibitors” (Emergent Product Development Gaithersburg Inc., priority 2021, dated 2026):

Experiments:
Assay type in all cases: biochemical
rat sucrase = target: T1, rat sucrase (Rattus norvegicus, UniProt P23739); experiment: Intestinal alpha-glucosidase assay, sucrose substrate; conditions: alpha-glucosidase from intestinal rat powder
T1 construct: partially purified alpha-glucosidase from intestinal rat powder; from tissue; host or cells: rat intestinal powder
T1 sequence (P23739 whole entry): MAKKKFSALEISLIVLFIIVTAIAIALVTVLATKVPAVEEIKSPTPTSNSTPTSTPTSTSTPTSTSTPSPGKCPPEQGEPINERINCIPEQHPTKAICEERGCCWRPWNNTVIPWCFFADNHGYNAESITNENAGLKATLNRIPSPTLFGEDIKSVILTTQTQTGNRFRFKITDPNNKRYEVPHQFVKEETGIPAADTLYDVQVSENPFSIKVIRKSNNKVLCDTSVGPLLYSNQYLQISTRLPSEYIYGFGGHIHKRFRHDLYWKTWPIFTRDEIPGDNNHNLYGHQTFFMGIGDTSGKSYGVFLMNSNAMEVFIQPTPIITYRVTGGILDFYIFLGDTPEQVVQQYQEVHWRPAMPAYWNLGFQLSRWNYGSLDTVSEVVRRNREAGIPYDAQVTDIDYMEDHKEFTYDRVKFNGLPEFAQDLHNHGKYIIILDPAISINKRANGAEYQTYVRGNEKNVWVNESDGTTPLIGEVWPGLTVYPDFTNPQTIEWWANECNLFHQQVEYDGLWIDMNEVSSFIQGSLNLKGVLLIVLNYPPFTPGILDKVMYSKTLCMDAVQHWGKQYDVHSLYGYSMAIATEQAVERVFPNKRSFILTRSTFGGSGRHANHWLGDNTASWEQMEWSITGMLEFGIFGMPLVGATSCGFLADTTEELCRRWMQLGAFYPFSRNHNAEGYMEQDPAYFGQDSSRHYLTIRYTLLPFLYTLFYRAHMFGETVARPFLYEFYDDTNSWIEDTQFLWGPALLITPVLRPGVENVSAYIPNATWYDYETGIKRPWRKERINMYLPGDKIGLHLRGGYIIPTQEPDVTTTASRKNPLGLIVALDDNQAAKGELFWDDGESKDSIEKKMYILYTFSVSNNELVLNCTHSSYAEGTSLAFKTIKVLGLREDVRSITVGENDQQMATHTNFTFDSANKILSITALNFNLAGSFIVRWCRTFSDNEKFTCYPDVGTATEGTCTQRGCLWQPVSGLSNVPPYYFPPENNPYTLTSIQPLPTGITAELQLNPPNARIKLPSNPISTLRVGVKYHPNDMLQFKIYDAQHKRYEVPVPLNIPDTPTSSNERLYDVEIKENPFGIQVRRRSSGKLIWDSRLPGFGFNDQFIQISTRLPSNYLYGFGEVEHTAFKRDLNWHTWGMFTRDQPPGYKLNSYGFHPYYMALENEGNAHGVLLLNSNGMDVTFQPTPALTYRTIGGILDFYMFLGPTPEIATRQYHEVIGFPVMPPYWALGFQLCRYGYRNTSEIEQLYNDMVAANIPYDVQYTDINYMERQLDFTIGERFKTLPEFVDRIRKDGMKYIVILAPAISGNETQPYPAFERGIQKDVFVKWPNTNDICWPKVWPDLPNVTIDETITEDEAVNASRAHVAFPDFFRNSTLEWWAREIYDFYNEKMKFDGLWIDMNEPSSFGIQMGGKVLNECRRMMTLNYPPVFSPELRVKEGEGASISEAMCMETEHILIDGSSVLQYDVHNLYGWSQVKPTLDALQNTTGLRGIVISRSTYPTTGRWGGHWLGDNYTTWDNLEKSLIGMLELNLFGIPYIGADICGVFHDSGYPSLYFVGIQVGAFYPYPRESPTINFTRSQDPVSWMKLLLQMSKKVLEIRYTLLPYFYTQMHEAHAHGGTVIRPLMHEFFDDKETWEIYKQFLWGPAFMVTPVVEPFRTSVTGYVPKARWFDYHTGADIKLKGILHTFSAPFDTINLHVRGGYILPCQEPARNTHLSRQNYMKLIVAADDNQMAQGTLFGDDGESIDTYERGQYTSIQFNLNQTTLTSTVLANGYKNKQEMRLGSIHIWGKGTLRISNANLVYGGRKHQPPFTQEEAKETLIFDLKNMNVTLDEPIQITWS
Description: (§1) Intestinal alpha-glucosidases (rat maltase and sucrase): Intestinal alpha-glucosidases act upon 1,4-alpha-glucoside bonds, breaking down disaccharides to glucose. To perform this assay, partially purified alpha-glucosidase from intestinal rat powder was incubated for 60 minutes at 37° C. with multiple dilutions of test compounds. Maltose or Sucrose respectively was then introduced as substrate to the mixture and incubated for 30 minutes at 37° C. The reaction was stopped by a 5-minute incubation at 90° C. and the resultant glucose production is detected using Sigma's Glucose GO Kit. Percent inhibition was then plotted as a function of concentration for each test compound. The IC50 was determined using a 4-PL curve fit and serves as the measure of relative inhibition of each test compound (see Table 4). Table 4 summarizes the results of IC50s for each molecule against each tested glucosidase enzyme.

recombinant human GBA = target: T2, recombinant human GBA (Homo sapiens, UniProt P04062); experiment: Beta-glucocerebrosidase (GBA) inhibition assay; conditions: 4-methylumbelliferyl-beta-D-pyranoside substrate, 4-PL curve fit
T2 construct: purchased
T2 sequence (P04062 40-536): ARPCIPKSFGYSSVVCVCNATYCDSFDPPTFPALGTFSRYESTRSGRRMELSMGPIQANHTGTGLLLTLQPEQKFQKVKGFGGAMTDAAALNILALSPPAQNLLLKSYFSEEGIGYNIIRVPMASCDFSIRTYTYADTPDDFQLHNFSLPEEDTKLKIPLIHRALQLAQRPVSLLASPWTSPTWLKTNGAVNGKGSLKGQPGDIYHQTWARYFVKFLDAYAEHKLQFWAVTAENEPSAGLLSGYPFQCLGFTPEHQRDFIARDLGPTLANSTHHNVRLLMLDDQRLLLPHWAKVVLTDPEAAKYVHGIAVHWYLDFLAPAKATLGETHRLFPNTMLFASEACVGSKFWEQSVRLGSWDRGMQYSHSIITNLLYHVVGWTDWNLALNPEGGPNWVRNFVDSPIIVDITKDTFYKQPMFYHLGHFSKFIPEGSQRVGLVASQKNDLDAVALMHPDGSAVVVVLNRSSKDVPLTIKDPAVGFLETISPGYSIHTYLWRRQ
Description: Beta-glucocerebrosidase (GBA, also referred to glucosylceramidase): To analyze inhibitory effects of a test compound, commercially available recombinant human GBA was incubated with multiple dilutions of test compound for 60 minutes at 37° C. 4-methylumbelliferyl-beta-D-pyranoside was then introduced to the mixture as substrate. Following incubation for 60 minutes at 37° C., 1,4-methyllumbelliferone was generated, and the reaction was stopped with the stop solution (0.5 M glycine; 0.3 M NaOH, pH 10). 1,4-methyllumbelliferone was detected by fluorescence (excitation at 365 nm, emission at 440 nm). Relative fluorescence is compared to untreated enzymatic activity and test compound concentration is then plotted as a function of percent inhibition. The IC50 was determined using a 4-PL curve fit as the measure of relative inhibitory activity of each test compound (see Table 4).

rat maltase = experiment: Intestinal alpha-glucosidase assay, maltose substrate; conditions: alpha-glucosidase from intestinal rat powder
Description: as §1

## CCCCN[C@H]1C[C@](O)(CO)[C@@H](O)[C@H](O)[C@H]1O [Compound 1, (1S,2S,3R,4S,5S)-5-(butylamino)-1-(hydroxymethyl)cyclohexane-1,2,3,4-tetraol]
Rat sucrase
  IC50: 0.07 µM
Recombinant human GBA
  IC50: > 1000 µM
Rat maltase
  IC50: 1.47 µM
